Measurements reported in patent US8779142B2, “Azabicyclo compound and salt thereof” (Taiho Pharmaceutical Co., Ltd., priority 2009, dated 2014).

How the values were obtained:
[1] = biological target: human HSP90 alpha protein (HSP90 N-terminal protein, amino acids 2-236) (Homo sapiens (Human), UniProt P07900); experiment: Measurement of HSP90-binding activity (AlphaScreen competitive assay, biotin-labeled geldanamycin); details: concentration inhibiting binding of biotin-labeled geldanamycin (40 nM) to purified HSP90 to 50% of control; read-out: HSP-binding activity IC50
[2] = system: SK-BR-3 cells; experiment: Measurement of cell growth inhibition (crystal violet staining method); type: cell-based; details: Homo sapiens
[3] = breast cancer SK-BR-3 cells, 72 hr culture with test substance

Row | IC50 [1] | IC50 [2, 3] | Structure (SMILES) | IC50 ([2]; SK-BR-3, 72 h)
1 | 0.34 µM | 0.65 µM | CC(C)c1nn(-c2ccc(C(N)=O)c(N)c2)c2nccc(-n3cnc(-c4cnn(C)c4)c3)c12 [Example 106, 2-Amino-4-{3-isopropyl-4-(4-(1-methyl-1H-pyrazol-4-yl)-1H-imidazol-1-yl)-1H-pyrazolo[3,4-b]pyridin-1-yl}benzamide] | –
2 | 0.33 µM | 0.15 µM | NC(=O)c1ccc(-n2nc(C(F)(F)F)c3c(-n4cnc(-c5cccnc5)c4)ccnc32)c(NC2CCCC2)c1 [Example 183, 3-(Cyclopentylamino)-4-{4-(4-(pyridin-3-yl)-1H-imidazol-1-yl)-3-(trifluoromethyl)-1H-pyrazolo[3,4-b]pyridin-1-yl}benzamide] | –
3 | 0.53 µM | 0.08 µM | CCNc1cc(-n2nc(C(F)(F)F)c3c(-n4cnc(-c5cccnc5)c4)ccnc32)ccc1C(N)=O [Example 178, 2-(Ethylamino)-4-{4-(4-(pyridin-3-yl)-1H-imidazol-1-yl)-3-(trifluoromethyl)-1H-pyrazolo[3,4-b]pyridin-1-yl}benzamide] | –
4 | – | 0.36 µM | Cc1cn(-c2ccc(C(N)=O)c(N[C@H]3CC[C@H](N)CC3)c2)c2nccc(-c3cnc4ccccc4c3)c12 [Example 61, 2-(Trans-4-aminocyclohexylamino)-4-{3-methyl-4-(quinolin-3-yl)-1H-pyrrolo[2,3-b]pyridin-1-yl}benzamide] | –
5 | 0.27 µM | 0.09 µM | Cc1cn(-c2ccc(C(N)=O)c(N[C@H]3CC[C@H](O)CC3)c2)c2nccc(-c3cnc4ccccc4c3)c12 [Example 40, 2-(Trans-4-hydroxycyclohexylamino)-4-{3-methyl-4-(quinolin-3-yl)-1H-pyrrolo[2,3-b]pyridin-1-yl}benzamide] | –
6 | 0.31 µM | 0.24 µM | CCNCCNc1cc(-n2cc(CC)c3c(-c4cnc5ccccc5c4)ccnc32)ccc1C(N)=O [Example 75, 4-{3-Ethyl-4-(quinolin-3-yl)-1H-pyrrolo[2,3-b]pyridin-1-yl}-2-{2-(ethylamino)ethylamino}benzamide] | –
7 | 0.23 µM | 0.03 µM | CC(C)c1nn(-c2ccc(C(N)=O)c(NC3CCN(C)CC3)c2)c2nccc(-c3cnc4ccccc4c3)c12 [Example 24, 4-{3-Isopropyl-4-(quinolin-3-yl)-1H-pyrazolo[3,4-b]pyridin-1-yl}-2-(1-methylpiperidin-4-ylamino)benzamide] | –
8 | 0.83 µM | 0.23 µM | Cc1cc(C(N)=O)ccc1-n1nc(C(F)(F)F)c2c(-c3cnc4ccccc4c3)ccnc21 [Example 82, 3-Methyl-4-{4-(quinolin-3-yl)-3-(trifluoromethyl)-1H-pyrazolo[3,4-b]pyridin-1-yl}benzamide] | –
9 | 0.51 µM | 0.67 µM | CC(C)c1nn(-c2ccc(C(N)=O)cc2Cl)c2nccc(-c3cnc4ccccc4c3)c12 [Example 38, 3-Chloro-4-{3-isopropyl-4-(quinolin-3-yl)-1H-pyrazolo[3,4-b]pyridin-1-yl}benzamide] | –
10 | 0.76 µM | 0.19 µM | CC(C)Nc1cc(-n2nc(C(C)C)c3c(-n4cnc(-c5cccnc5)c4)ccnc32)ccc1C(N)=O [Example 140, 4-{3-Isopropyl-4-(4-(pyridin-3-yl)-1H-imidazol-1-yl)-1H-pyrazolo[3,4-b]pyridin-1-yl}-2-(isopropylamino)benzamide] | –
11 | 0.2 µM | 0.13 µM | NC(=O)c1ccc(-n2nc(C(F)(F)F)c3c(-n4cnc(-c5cccnc5)c4)ccnc32)c(NC2CCC2)c1 [Example 182, 3-(Cyclobutylamino)-4-{4-(4-(pyridin-3-yl)-1H-imidazol-1-yl)-3-(trifluoromethyl)-1H-pyrazolo[3,4-b]pyridin-1-yl}benzamide] | –
12 | 0.1 µM | 0.01 µM | NC(=O)c1ccc(-n2cc(C(F)(F)F)c3c(-c4cnc5ccccc5c4)ccnc32)cc1N[C@H]1CC[C@H](O)CC1 [Example 43, 2-(Trans-4-hydroxycyclohexylamino)-4-{4-(quinolin-3-yl)-3-(trifluoromethyl)-1H-pyrrolo[2,3-b]pyridin-1-yl}benzamide] | –
13 | 0.46 µM | 0.21 µM | Cc1cn(-c2ccc(C(N)=O)c(NCC(C)(C)O)c2)c2nccc(-c3cnc4ccccc4c3)c12 [Example 58, 2-(2-Hydroxy-2-methylpropylamino)-4-{3-methyl-4-(quinolin-3-yl)-1H-pyrrolo[2,3-b]pyridin-1-yl}benzamide] | –
14 | 0.23 µM | 0.04 µM | CC(C)c1nn(-c2ccc(C(N)=O)c(NC3CCC(O)CC3)c2)c2nccc(-n3cnc(-c4ccoc4)c3)c12 (stereo not drawn) [Example 90, 4-{4-(4-(Furan-3-yl)-1H-imidazol-1-yl)-3-isopropyl-1H-pyrazolo[3,4-b]pyridin-1-yl}-2-(4-hydroxycyclohexylamino)benzamide] | –
15 | 0.09 µM | 0.01 µM | CCCc1cn(-c2ccc(C(N)=O)c(N[C@H]3CC[C@H](O)CC3)c2)c2nccc(-c3cnc4ccccc4c3)c12 [Example 45, 2-(Trans-4-hydroxycyclohexylamino)-4-{3-propyl-4-(quinolin-3-yl)-1H-pyrrolo[2,3-b]pyridin-1-yl}benzamide] | –
16 | 0.69 µM | 1.89 µM | Cc1c(-n2nc(C(C)C)c3c(-n4cnc(-c5cnn(C)c5)c4)ccnc32)ccc(C(N)=O)c1F [Example 130, 2-Fluoro-4-{3-isopropyl-4-(4-(1-methyl-1H-pyrazol-4-yl)-1H-imidazol-1-yl)-1H-pyrazolo[3,4-b]pyridin-1-yl}-3-methylbenzamide] | –

Row | IC50 [1] | IC50 [2, 3] | Structure (SMILES) | IC50 ([2]; SK-BR-3, 72 h)
17 | 0.19 µM | 0.53 µM | CC(C)c1nn(-c2ccc(C(N)=O)cc2C2CC2)c2nccc(-n3cnc(-c4cccnc4)c3)c12 [Example 138, 3-Cyclopropyl-4-{3-isopropyl-4-(4-(pyridin-3-yl)-1H-imidazol-1-yl)-1H-pyrazolo[3,4-b]pyridin-1-yl}benzamide] | –
18 | 0.11 µM | 0.09 µM | CCNc1cc(C(N)=O)ccc1-n1nc(C(F)(F)F)c2c(-n3cnc(-c4cnn(C)c4)c3)ccnc21 [Example 162, 3-(Ethylamino)-4-{4-(4-(1-methyl-1H-pyrazol-4-yl)-1H-imidazol-1-yl)-3-(trifluoromethyl)-1H-pyrazolo[3,4-b]pyridin-1-yl}benzamide] | –
19 | 0.13 µM | 0.24 µM | Cn1cc(-c2cn(-c3ccnc4c3c(C(F)(F)F)nn4-c3ccc(C(N)=O)cc3Cl)cn2)cn1 [Example 153, 3-Chloro-4-{4-(4-(1-methyl-1H-pyrazol-4-yl)-1H-imidazol-1-yl)-3-(trifluoromethyl)-1H-pyrazolo[3,4-b]pyridin-1-yl}benzamide] | –
20 | 0.34 µM | 0.27 µM | CCc1cn(-c2ccc(C(N)=O)c(NCCCCO)c2)c2nccc(-c3cnc4ccccc4c3)c12 [Example 74, 4-{3-Ethyl-4-(quinolin-3-yl)-1H-pyrrolo[2,3-b]pyridin-1-yl}-2-(4-hydroxybutylamino)benzamide] | –
21 | – | – | COc1ccc2c(c1)cc(C)n2-c1ccc(C(N)=O)c(Nc2ccccc2)c1 [Comparative Example 5, reference compound] | > 10 µM
22 | 0.31 µM | 0.49 µM | CNc1cc(-n2nc(C(C)C)c3c(-n4cnc(-c5cnn(C)c5)c4)ccnc32)ccc1C(N)=O [Example 110, 4-{3-Isopropyl-4-(4-(1-methyl-1H-pyrazol-4-yl)-1H-imidazol-1-yl)-1H-pyrazolo[3,4-b]pyridin-1-yl}-2-(methylamino)benzamide] | –
23 | 0.23 µM | 1.56 µM | CC(C)c1nn(-c2ccc(C(N)=O)cc2CN2CCOCC2)c2nccc(-n3cnc(-c4cnn(C)c4)c3)c12 [Example 127, 4-{3-Isopropyl-4-(4-(1-methyl-1H-pyrazol-4-yl)-1H-imidazol-1-yl)-1H-pyrazolo[3,4-b]pyridin-1-yl}-3-(morpholinomethyl)benzamide] | –
24 | 0.62 µM | 0.71 µM | CCNc1cc(C(N)=O)ccc1-n1nc(C(F)(F)F)c2c(-n3cnc(-c4cnn(C(C)C)c4)c3)ccnc21 [Example 187, 3-(Ethylamino)-4-{4-(4-(1-isopropyl-1H-pyrazol-4-yl)-1H-imidazol-1-yl)-3-(trifluoromethyl)-1H-pyrazolo[3,4-b]pyridin-1-yl}benzamide] | –
25 | 0.21 µM | 0.37 µM | Cn1cc(-c2cn(-c3ccnc4c3c(C(F)(F)F)nn4-c3ccc(C(N)=O)cc3Br)cn2)cn1 [Example 170, 3-Bromo-4-{4-(4-(1-methyl-1H-pyrazol-4-yl)-1H-imidazol-1-yl)-3-(trifluoromethyl)-1H-pyrazolo[3,4-b]pyridin-1-yl}benzamide] | –
26 | – | 0.59 µM | COc1ccc(-c2ccnc3c2c(C(C)C)nn3-c2ccc(C(N)=O)c(N[C@H]3CC[C@H](O)CC3)c2)cn1 [Example 18, 2-(Trans-4-hydroxycyclohexylamino)-4-{3-isopropyl-4-(6-methoxypyridin-3-yl)-1H-pyrazolo[3,4-b]pyridin-1-yl}benzamide] | –
27 | – | > 10 µM | COc1cc2ccn(-c3ccc(C#N)c(Nc4ccccc4)c3)c2cc1OC [Comparative Example 3, reference compound] | –
28 | – | 0.15 µM | COc1cc(C(N)=O)ccc1-n1nc(C(C)C)c2c(-n3cnc(-c4cnn(C)c4)c3)ccnc21 [Example 128, 4-{3-Isopropyl-4-(4-(1-methyl-1H-pyrazol-4-yl)-1H-imidazol-1-yl)-1H-pyrazolo[3,4-b]pyridin-1-yl}-3-methoxybenzamide] | –
29 | – | 0.51 µM | Cc1cn(-c2ccc(C(N)=O)c(S[C@H]3CC[C@H](O)CC3)c2)c2nccc(-c3cnc4ccccc4c3)c12 [Example 67, 2-(Trans-4-hydroxycyclohexylthio)-4-{3-methyl-4-(quinolin-3-yl)-1H-pyrrolo[2,3-b]pyridin-1-yl}benzamide] | –
30 | – | – | COc1cc2ccn(-c3ccc(C(N)=O)c(Nc4ccccc4)c3)c2cc1OC [Comparative Example 4, reference compound] | > 10 µM
31 | – | 0.03 µM | CC(C)c1nn(-c2ccc(C(N)=O)c(N[C@H]3CC[C@H](O)CC3)c2)c2nccc(-c3cnc4ccccc4c3)c12 [Example 6, 2-(Trans-4-hydroxycyclohexylamino)-4-{3-isopropyl-4-(quinolin-3-yl)-1H-pyrazolo[3,4-b]pyridin-1-yl}benzamide] | –
